What was measured:
SPs0871 [1] = target: T1, SPs0871 (Streptococcus pyogenes, UniProt A0A0H2UUQ6); test: MST binding analysis; details: for concentration-dependent response by MST: 15.3 nM to 500 µM compound; for concentration-dependent response by MST / Kd: 100 nM SPs0871; for Kd: read-out: KD values calculated by MST analysis
Protocol: (§1) MST was performed on a Monolith NT.115 instrument using Monolith NT.115 Series, Premium Capillaries, and His-tagged SPs0871 was labeled using the Monolith His-Tag Labeling Kit RED-Tris-NTA 2nd Generation (NanoTemper Technologies GmbH, Munich, Germany). The final concentration of SPs0871 was 100 nM, and the final concentration of the dye was 5 nM. The buffer was PBS-T (PBS, 0.005% Tween 20), 5% DMSO. A range of concentrations of compounds (15.3 nM to 500 µM) was tested.

SPs0871 [2] = target: T1, SPs0871; test: SPR analysis of binding to immobilized SPs0871 (Biacore T200); details: for concentration-dependent response by SPR (derivatives, cross-validation): 3.125–200 µM
Protocol: The binding of maltotriose and compound derivatives to SPs0871 was assessed using a Biacore T200 instrument (Cytiva, Marlborough, MA, USA). SPs0871 was immobilized at 4300–4700 RU on the surface of a CM5 sensor chip (Cytiva) by the amine-coupling method according to the manufacturer’s instructions. The running buffer was phosphate buffered saline with Tween (PBS, 0.005% Tween 20), 5% DMSO. To measure the interaction of maltotriose with SPs0871, a range of concentrations of maltotriose (0.039–20 µM) were injected at a flow rate of 30 μL min^–1 with a 20 s association time and a 40 s dissociation time. To measure the interaction of compound derivatives with SPs0871, a range of concentrations of compound derivatives (3.125–200 µM) were injected at a flow rate of 30 μL min^–1 with a 20 s association time and a 40 s dissociation time. Data analysis was carried out using BIAevaluation software (Cytiva, version ver3.2.1, https://www.cytivalifesciences.com/ja/jp/support/software/biacore-downloads?_gl=1*18vz87l*_gcl_au*MjA3MjI1ODE4Ni4xNzQyOTU1NzY3*_ga*OTQ5NDM5MTMyLjE3NDI5NTU3Njg.*_ga_CS9H0CZBWW*MTc0NDQ0NjkwMy41LjEuMTc0NDQ0ODAwNC4wLjAuMA.). The KDs of the interactions were calculated from Scatchard plots.

MalE1 = test: MST analysis of bacterial species specificity; format: binding, L. casei
Description: Finally, to gain an insight into the specificity of the three compounds for bacterial species, we prepared MalE1 from L. casei as a recombinant protein and used MST to assess the binding of compounds 95,186, 95186b, and 95186c to MalE1.
(§2) The SPs0871 (including mutants) gene fragment encoding amino acids 27–415 was cloned into Escherichia coli expression vector pCold I (for MST) or pCold SUMO, in which the His6-SUMO-tag was introduced into the pCold I vector (Takara, Shiga, Japan). The same process was performed for MalE1 derived from the L. casei gene fragment encoding amino acids 28–410. The recombinant protein was expressed and purified as previously described.
as §1

S. pyogenes strain JRS4 = test: Growth assay in CDM supplemented with maltotetraose, JRS4; format: cell-based, Streptococcus pyogenes; details: for GAS growth: 0.5% maltotetraose, 1% DMSO, OD600
Protocol: (§3) Bacteria were incubated in a carbohydrate-free chemically defined medium (CDM) supplemented with maltotetraose, which is thought to be taken up only via the SPs0871 pathway. […] Further, we also evaluated the antibacterial effect of 95,186 against SSI-1 strain, which is isolated from a STSS patient.
(§4) JRS4 and SSI-1 were used as GAS strains. The medium used as well as the procedure up to the assay were the same as previously described. […] For SSI-1, an additional 0.1% glucose was added to the CDM medium containing maltotetraose. To confirm the bacteriostatic effect of compound 95,186, the bacterial culture incubated in CDM was inoculated into THY medium to achieve a final OD600 value of 0.01.

SPs0871 [3] = target: T1, SPs0871; test: DSF, melting temperature of SPs0871; format: binding
Description: In the subsequent DSF screening, we measured the Tm value of SPs0871 in the presence of each compound. We also evaluated the structural stabilizing effect of each compound by binding it to SPs0871, which reflected the binding of the compound in the ligand binding pocket and the intramolecular interaction network. We included SPs0871 without small compounds as a negative control in each screening plate. The difference between the Tm value for each compound and the highest negative control Tm value in the same plate was used as the activity value for each compound.
DSF was performed on a CFX Connect Real-Time System (Bio-Rad, Hercules, CA, USA). The buffer was 1 × PBS, 5% DMSO except an experiment to assess the change of Tm value in a sugar concentration-dependent manner (Figure S1), in which DMSO was not added into the buffer. In the initial screening, the final concentration of the compounds was 100 µM and the concentration of SPs0871 was a 2 μM. One thousandth of the sample volume of SYPRO Orange Protein Gel Stain (5000 × concentrated in DMSO; Invitrogen, Waltham, MA, USA) was added, and samples containing 5 × SYPRO Orange were loaded onto 96-well PCR Plates (Bio-Rad) for measurement. The denaturation of protein was observed via fluorescence emitted from SYPRO Orange upon absorption to the exposed hydrophobic surface.

SSI-1 strain = test: Growth assay in CDM medium, SSI-1; format: cell-based, Streptococcus pyogenes; details: 100 µM compound, 0.5% maltotetraose plus 0.1% glucose
Protocol: as §3, §4

[4] = system: SPs0871 mutants (E146, K294, W256 mutated to alanine); test: MST binding to recombinant SPs0871 alanine mutants; set-up: species or system Streptococcus pyogenes
Description: To assess whether 95,186 competes with the natural ligand maltotriose in binding to SPs0871, we conducted MST analysis in the presence or absence of maltotriose. […] When we performed additional docking calculations using the Glide docking program (Schrodinger, New York, NY, USA) to identify hotspot residues for the compound binding, E146 and K294 were predicted to form hydrogen bonds and W256 was predicted to form van der Waals interactions during compound binding (Fig. 4B,C). We validated these predictions using recombinant SPs0871 mutants in which these residues were mutated to alanine.
as §2
as §1, with “The buffer was PBS-T (PBS, 0.005% Tween 20), 5% DMSO. A range of concentrations of compounds (15.3 nM to 500 µM) was tested.” left out

SPs0871 [5] = target: T1, SPs0871; test: SPR screening of direct binding to SPs0871 (Biacore 8K)
Description: In parallel, we conducted SPR screening to evaluate the direct binding of compounds to SPs0871. We immobilized SPs0871 on a sensor chip, flowed each compound to the chip in sequence, and evaluated the response for each compound. The response derived from maltotriose binding was designated as the positive control, with a relative value 100, and the response derived from the injection of running buffer was designated as the negative control, with a relative value 0. The molecular weight corrected value for each compound was used as the activity value.
Direct binding of compounds to SPs0871 was examined using a Biacore 8 K instrument (Cytiva). SPs0871 was immobilized at 3500–5300 RU on the surface of a CM5 sensor chip (Cytiva) by the amine-coupling method according to the manufacturer’s instructions. The running buffer was PBS-T (PBS, 0.005% Tween 20), 5% DMSO. In the screening, the final concentration of each compound was 100 µM, and samples were injected at a flow rate of 30 μL min^–1 with a 30 s association time. To check the concentration dependency, a range of concentrations of the compounds (3.125–50 µM) were injected at a flow rate of 30 μL min^–1 with a 20 s association time and a 30 s dissociation time. […]

T1 sequence (A0A0H2UUQ6 entry or part of it): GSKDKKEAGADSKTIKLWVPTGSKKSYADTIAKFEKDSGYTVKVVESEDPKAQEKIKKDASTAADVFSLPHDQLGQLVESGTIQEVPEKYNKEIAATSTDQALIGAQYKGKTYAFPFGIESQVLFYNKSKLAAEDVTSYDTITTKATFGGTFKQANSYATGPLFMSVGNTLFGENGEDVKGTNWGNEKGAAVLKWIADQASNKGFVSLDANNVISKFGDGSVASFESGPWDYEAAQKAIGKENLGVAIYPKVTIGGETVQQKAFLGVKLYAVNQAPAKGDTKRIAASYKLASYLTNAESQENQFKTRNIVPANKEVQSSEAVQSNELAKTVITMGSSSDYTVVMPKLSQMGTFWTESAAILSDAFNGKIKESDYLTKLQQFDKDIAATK

Compound	concentration-dependent response by MST (SPs0871 [1])	concentration-dependent response changes by MST with MalE1 (MalE1)	Kd (SPs0871 [1]) [µM]	GAS growth (S. pyogenes strain JRS4; 100 µM compound)	also measured
Cc1ccc(-c2nnc3c4ccccc4c(C)nn23)cc1NC(=O)CN1CCCCC1 [95186a]	no change	–	–	–	–
Cc1nn2c(-c3cccc(NC(=O)CN4CCOCC4)c3)nnc2c2ccccc12 [95186b]	concentration-dependent response change	No concentration-dependent response changes were detected	67.1	suppressed GAS growth	concentration-dependent response by SPR (derivatives, cross-validation) (SPs0871 [2]): observed concentration-dependent responses
CCC(=O)Nc1cccc(-c2nnc3c4ccccc4c(C)nn23)c1 [95186c]	concentration-dependent response change	No concentration-dependent response changes were detected	71.7	suppressed GAS growth	concentration-dependent response by SPR (derivatives, cross-validation) (SPs0871 [2]): observed concentration-dependent responses
Cc1nn2c(-c3cccc(NC(=O)c4ccco4)c3)nnc2c2ccccc12 [95186d]	concentration-dependent response change	–	–	–	initial optical density at 600 nm (OD600) values (S. pyogenes strain JRS4; 100 µM in CDM with maltotetraose): high because of aggregation of the compounds in the medium as well as bacterial growth
Cc1nn2c(-c3cccc(NC(=O)c4ccccc4)c3)nnc2c2ccccc12 [95186e]	no change	–	–	–	–
Cc1nn2c(-c3cccc(NC(=O)COc4ccccc4)c3)nnc2c2ccccc12 [95186f]	no change	–	–	–	–
Cc1nn2c(-c3cccc(NC(=O)CSc4nc5ccccc5o4)c3)nnc2c2ccccc12 [95186g]	no change	–	–	–	–
O=C(CN1CCCCC1)Nc1cccc(C(=O)Nc2cccc(C(F)(F)F)c2)c1 [95186h]	no change	–	–	–	–
Cc1nn2c(-c3cccc(NC(=O)CN4CCCCC4)c3)nnc2c2ccccc12 [compound 95186]	showed a concentration-dependent response	No concentration-dependent response changes were detected	44.7	suppressed GAS growth	ΔTm at 100 µM (SPs0871 [3]; 100 µM compound, 2 µM SPs0871, hit criterion > 0.4 °C, read-out: DSF activity value (Tm with compound minus highest negative control Tm in the same plate)): 0.6 °C; maltodextrin dependent growth of SSI-1 (SSI-1 strain): suppressed the maltodexitrin dependent growth of SSI-1; MST response in the presence of maltotriose (competition) (SPs0871 [1]; 60 µM maltotriose): concentration-dependent response disappeared; growth inhibition potential compared among compounds (S. pyogenes strain JRS4; 100 µM compound): highest growth inhibition potential; concentration dependence of growth suppression (S. pyogenes strain JRS4; JRS4, maltotetraose medium): concentration dependent above the KD value concentration; bactericidal or bacteriostatic effect (S. pyogenes strain JRS4; JRS4 exposed to compound transferred into THY medium, final OD600 0.01): bacteriostatic action; MST response change upon binding to SPs0871 alanine mutants [4]: Only the W256A mutation attenuated the response change upon the binding; SPR activity value (molecular weight corrected relative response) (SPs0871 [5]; 100 µM compound, maltotriose response = 100, running buffer = 0, hit criterion ≥ 60): 162; concentration dependence of the binding by SPR (SPs0871 [5]; 3.125–50 µM, three independent experiments): concentration-dependent increase in response was reproducibly observed
maltotriose [reference compound]	–	–	6.2	–	Kd (SPs0871 [2]; maltotriose 0.039–20 µM, calculated from Scatchard plots, read-out: dissociation constant (KD) by SPR): 0.61 µM; increase of the melting temperature of SPs0871 (SPs0871 [3]; DSF, 10 µM maltotriose): 1.2 °C
